In patent publication US6723702B2, “Use of relaxin treat diseases related to vasoconstriction” (RAS Medical, Inc., priority 2000, dated 2004):
Read-outs that look alike come from different tables or passages of the source.

Columns and labels:
[1] = test system: hypoxia-exposed and room-air Sprague-Dawley rats; assay type: in vivo, rat; details: for mean RVP compared to the veh-hyp group: hypoxia 10 days (FIG. 7)
Method: Outbred 6-week-old Sprague-Dawley rats, 200-220 g body weight, were obtained from Hilltop Laboratories, Scottdale, Pa. Recombinant human relaxin (rhRlx) (5.0 mg/ml in 20 mM sodium acetate, pH5.0) and vehicle (20 mM acetate, pH5.0) were provided by Connetics Corporation (Palo Alto, Calif.). Miniosmotic pumps were purchased from Alza Corporation (Model 2002, Alza Corp., Palo Alto, Calif.).
Mini osmotic pumps were filled to deliver rhRlx at […], or vehicle alone. Osmotic pumps were inserted subcutaneously in rats under a combination of ketamine and xylazine anaesthesia. The area around the back of the neck was shaved, cleaned with alcohol, and a small incision made for pump insertion. Incision was closed with surgical staples. After the animals were fully conscious they were randomly assigned to either hypoxic exposure or room air. Rats were subjected to either air or hypoxia, as described below. There were three groups of rats subjected to air: vehicle-treated (veh-air), 0.05 mg/kg/day rhRlx (low rhRlx-air), and 0.24 mg/kg/day rhRlx (hi rhRlx-air). There were three groups subjected to hypoxia: vehicle (veh-hyp), 0.05 mg/kg/day rhRlx (low rhRlx-hyp), and 0.24 mg/kg/day rhRlx (hi rhRlx-hyp).
Rats were exposed to hypoxia (10% O2, 90% N2) at ambient pressure (Kerr et al., 1987) for 10 days, control groups were exposed to room air in the same room. Hypoxic animals were fed standard rat chow and water. Age-matched control groups were weight-matched by feeding the amount of food consumed by the rats in the hypoxic groups. At the end of the test period, mean right ventricular pressure (RVP) was measured in rats anaesthetized with an intraperitoneal injection of 50 mg/kg pentobarbital sodium. The portal vein was then cut for hematocrit measurement (Hct) and blood sampling, and the ratio of the right ventricle to left ventricle plus septum measured [RV/(LV+S)] (Kerr et al., 1987). To determine the effect of acute administration of rhRlx on pulmonary artery pressure, four 10-day hypoxic rats were anaesthetized, as previously described, and RVP monitored for 1 hr following administration of a bolus dose of 2 μg rhRlx in 0.2 ml total volume, followed by an infusion of 2 μg rhRlx in 0.2 ml, given over 10 min.
The pulmonary artery trunk, right and left extrapulmonary branches were removed en bloc, cleaned of surrounding tissue, and weighed. The left lung was and excised and the entire hilar artery dissected from parenchyma and weighed (Tozzi et al. (1994) Am. J. Respir. Crit. Care Med. 149:1316-1326). Segments were hydrolyzed, and total hydroxyproline and protein determined (Poiani et al. (1990) Circ. Res. 66:968-978). Approximately 3 cc of whole blood was centrifuged, serum aspirated, and sample frozen at −20° C. for determination of rRlx levels by ELISA assay.

[2] = test system: bFGF and VEGF protein staining, peri-infarct area of the heart; test: Rat LCAL model: immunohistochemical analysis of the peri-infarct area; assay type: in vivo
Method: Immunohistochemical analysis of the peri-infarct area of the heart was performed as follows. Transverse sections from paraffin embedded hearts were obtained at 3 levels. Sections were stained with H&E to assess neovascularization. Slides of heart sections were deparaffinized in xylene and washed with ethanol. Slides were then rinsed in sterile double distilled water before proceeding with antigen retrieval, as recommended by the antibody vendor (Biogenex). Sections were incubated for 30 minutes in 1.5% normal goat blocking serum (Biogenex, San Ramon, Calif.) and washed three times for 5 minutes each with PBS. Sections were then incubated with a monoclonal antibody against VEGF (VEGF-C1), or a polyclonal antibody against bFGF (FGF-2-147) (both at 5 μg/ml), before washing with PBS. Primary, and anti-goat or anti-rabbit secondary antibodies were purchased from Santa Cruz Biotechnology (Santa Cruz, Calif.). Sections were then incubated in multilink, a biotinylated goat anti-immunoglobulin for use with mouse, rabbit, guinea pig and rat primary antibodies (Biogenex) for 30 minutes at room temperature, followed by washing twice for 10 minutes each with PBS. Sections were labeled with peroxidase conjugated streptavidin for 20 minutes before finally washing twice for 5 minutes with PBS and air-drying). […]

## rhRLX: recombinant human relaxin, identical in amino acid sequence to the product of the human H2 gene; A chain of 24, B chain of 29 amino acids
[1]; 1 mg-air
  Hydroxyproline Hilar: 38.0 ± 2.3 μg/vessel
  Hydroxyproline MPA: 76.4 ± 4.0 μg/vessel
  Protein Hilar: 0.78 ± 0.3 mg/vessel
  Protein MPA: 2.6 ± 0.2 mg/vessel
[1]; 1 mg-hyp
  Hydroxyproline Hilar: 41.0 ± 3.3 μg/vessel
  Hydroxyproline MPA: 95.2 ± 3.6 μg/vessel
  Protein Hilar: 0.90 ± 0.2 mg/vessel
  Protein MPA: 2.3 ± 0.2 mg/vessel
[1]; 5 mg-air
  Hydroxyproline Hilar: 33.5 ± 1.5 μg/vessel
  Hydroxyproline MPA: 75.2 ± 4.0 μg/vessel
  Protein Hilar: 1.1 ± 0.1 mg/vessel
  Protein MPA: 2.5 ± 0.3 mg/vessel
[1]; 5 mg-hyp
  Hydroxyproline Hilar: 37.0 ± 5.0*↑ μg/vessel
  Hydroxyproline MPA: 86.6 ± 6.0*↑ μg/vessel
  Protein Hilar: 0.75 ± 0.8 mg/vessel
  Protein MPA: 2.0 ± 0.4 mg/vessel
[1]; hi rhRlx-hyp
  RV/(LV+S) ratio compared to the veh-hyp group: significantly reduced
[1]; high dose
  mean RVP compared to the veh-hyp group: decreased
[1]; low dose
  mean RVP compared to the veh-hyp group: decreased
[1]; low rhRlx-hyp
  RV/(LV+S) ratio compared to the veh-hyp group: significantly reduced
[2]; 7 and 21 days, vs vehicle-treated hearts, blinded scoring
  peri-infarct bFGF staining: more intense
[2]; relaxin vs vehicle-treated hearts
  intensity of VEGF staining: No differences in intensity
